# What was measured:
# [1] = background statement; cited from earlier work
# [2] = Serum DHA by gas-liquid chromatography; type: in vivo, human; conditions: after 2 and 4 months of supplementation
# Experimental: (§1) Women were randomly assigned to one of four groups: Control (n=10), DHA (n=14, DHA 800 mg/d), lutein (n=12, lutein 12 mg/d), and lutein+DHA (n=14, lutein 12 mg/d; DHA 800 mg/d) (C, D, L, and LD, respectively). The supplement type was randomized. Subjects visited the Jean Mayer USDA Human Nutrition Research Center on Aging at Tufts University on days that supplements were distributed and blood obtained (0 mo-baseline, 2 mo, and 4 mo). Subjects were instructed to take the supplement with a nutritional energy drink (8 oz., Boost®, Mead Johnson Nutritionals) but were otherwise asked to not alter their diets. The diet of each subject was monitored with food frequency questionnaires (Block G, et al., A data-based approach to diet questionnaire design and testing. Am J Epidemiol, 1986. 24: p. 453-469) completed at baseline, 2 months and 4 months to be sure that there were no confounding changes in dietary intake. […] Compliance was by monitored by interview, compliance calendars and capsule count. […] Aliquots of serum are stored at −70° C. until analyzed. […]
# (§2) Serum carotenoids were extracted and analyzed by HPLC using the method described by Yeum et al. (Yeum, K. J., et al., Am J Clin Nutr, 1996. 64(4): p. 594-602.). […]
# (§3) Results are expressed as mean ±SE. […]
# [3] = Serum carotenoids (lutein, zeaxanthin) by HPLC; type: in vivo, human; conditions: after 2 and 4 months of supplementation
# Experimental: as §1, §2, §3
smiles,measurement,setting,value
"CC1=C[C@H](O)CC(C)(C)[C@H]1/C=C/C(C)=C/C=C/C(C)=C/C=C/C=C(C)/C=C/C=C(C)/C=C/C1=C(C)C[C@@H](O)CC1(C)C [Lutein, lutein]",Share transported in blood on HDL,[1],about 53%
same,Share transported in blood on LDL,[1],about 31%
same,Share transported in blood on VLDL,[1],about 16%
same,"Serum concentration of DHA, change from baseline",[2],No significant changes
same,"Serum concentration of lutein, change from baseline",[3],significantly increased

# Reference: patent US20080114066A1, “Synergistic Effects Of Docosahexaenoic Acid (DHA) And Carotenoid Absorption Of Cognitive Function” (Trustees of Tufts College, priority 2005, published 2008)
